Measurements as given in patent US8362021B2, “Method for increasing the bioavailability of benzhydryl piperazine containing compounds” (Zalicus Pharmaceuticals Ltd., priority 2006, dated 2013).
Like-named read-outs stand apart in the source and are kept apart here.

Experiment: Single dose, open-label food effect pharmacokinetic trial of oral capsules in healthy subjects
Type: in vivo, human
Conditions: for bioavailability / Tmax: human, plasma, po; for bioavailability: healthy subjects; for Tmax: oral administration
Procedure: A single centre, single dose, open-label trial in healthy subjects was conducted. Study drug treatments were as follows: • Treatment A: Compound No. 1, in capsule form (25-400 mg) administered without food; • Treatment B: Compound No. 1, in capsule form (400-800 mg) administered with a normal fat meal; • Treatment C: Compound No. 1, in capsule form (400-1600 mg) administered with a high-fat meal.
In treatment A, subjects fasted overnight with water permitted up to one hour before dosing. One or more 25 mg or 100 mg capsules of Compound No. 1 were administered with 240 mL room temperature water. Subjects continued to fast for approximately 4 hours until lunch. All meals and snacks provided during the study were low fat and standardized. Additional water was allowed ad lib but there was no caffeine, smoking or alcohol and no vigorous exercise.
In treatments B and C, subjects consumed breakfast the day of the study. Breakfast commenced approximately 30 minutes prior to dosing with dosing occurring within 10 minutes after finishing the meal. One or more 25 mg or 100 mg capsules containing Compound No. 1 were administered to the subjects with 240 mL room temperature water. After dosing, subjects consumed no food until lunch and otherwise followed the same protocol as in treatment A.
In treatment B, a normal fat meal consisted of: toast with 1 pat of butter; a banana; 2% milk; apple juice; and Honey Nut Cheerios®. In treatment C, a high fat meal consisted of: 2 slices of buttered toast, 2 eggs fried in butter, 2 slices of bacon, 4 oz hash brown potatoes and 8 oz of whole milk.
Subjects received one or two doses. There was a washout period of at least 14 days between study drug administrations in those subjects dosed more than once. […] The actual dosing and sample times were recorded on a Case Report Form. At least 15 blood samples were collected during the period from pre-dose through 48 hours post-dose; in most subjects, additional samples were obtained at 60, 72, 120, 168 and 336 hours post-dose. Concentrations of Compound No. 1 were determined in plasma by BASi Northwest Laboratories Inc. (McMinnville, Oreg.) by LC-MS/MS. The lower limit of quantitation for Compound No. 1 was 0.05 ng/mL. Sample values below the lower limit of quantitation were reported as “<0.05 ng/mL”.
Pharmacokinetic parameters were obtained using compartmental methods. Relative exposure was quantified through the term relative bioavailability. In that none of the subjects received an intravenous dose of Compound No. 1, absolute bioavailability could not be determined. […] There were no protocol deviations that confounded the pharmacokinetic analyses.
Statistical analyses were performed using NONMEM version 5. Study results were not corrected for drug potency.

## O=C(CC(c1ccccc1)c1ccccc1)N1CCN(C(c2ccccc2)c2ccccc2)CC1 [Compound No. 1, 1-(3,3-diphenylpropionyl)-4-benzhydryl piperazine]
400 mg and 800 mg dosage
  bioavailability, normal fat meal vs high fat meal (individual plasma concentrations, FIGS. 3 and 4): increased bioavailability
Fasting compared to a normal fat meal
  decrease of bioavailability: 32%
High fat meal compared to a normal fat meal
  increase of bioavailability of capsules: 460%
Typical value, read-out: Relative bioavailability, 25-mg capsules (relative to 100-mg capsules)
  bioavailability: 148%
Subjects fasted
  Tmax: < 2 h
Subjects fed a high fat meal
  Tmax: 4 to 5 h
Subjects fed a normal fat meal
  Tmax: 2 to 5 h
Oral capsules, typical value of compartmental NONMEM analysis, read-out: Relative bioavailability, Fasted (relative to normal-fat meal)
  bioavailability: 68.2%
